The values below come from patent publication US20050004017A1, “Methods and compositions for treating hcap associated diseases” (priority 2001, published 2005).

In this assay the test system is HCAP interaction with ErbB-2. As to the kind of experiment: Co-immunoprecipitation of HCAP with anti-ErbB-2 antibody from radicicol-treated T47D cells. Conditions: T47D cells treated with radicicol (3 μM) for 0, 3 or 6 hours; gel electrophoresis, bands identified by mass spectroscopy. It counts as cell-based. The procedure:
Band numbers 30 and 35 were identified by mass spectroscopic analysis as hepatocellular associated protein (HCAP). […] T47D cells, a breast cancer cell line that is mutant for the p53 tumor suppressor gene and ErbB-2 positive, were treated with radicicol (RA) for 0, 3 or 6 hours, and then proteins were immunoprecipitated using an anti-ErbB-2 antibody and resolved by gel electrophoresis. […] Band nos. 30 and 35 were identified by mass spectroscopic analysis to be hepatocarcinoma associated protein (HCAP). The amount of HCAP immunoprecipitated with anti-ErbB-2 antibody decreased in the presence of RA.

Turning to `C[C@@H]1C[C@H]2O[C@@H]2/C=C\C=C\C(=O)Cc2c(Cl)c(O)cc(O)c2C(=O)O1` [radicicol, Radicicol], the “amount of HCAP immunoprecipitated with anti-ErbB-2 antibody” value is “decreased”.
